Several values for one entry are separate records, joined by “and”; a condition that tells them apart may be missing. Identical values can stand only once. Like-named read-outs stand apart in the source and are kept apart here. Marks after values point to notes of the source that are not given here.
Key:
MSSA [1] = assay: Checkerboard assay (FIC index); format: cell-based, Staphylococcus aureus;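 also: each agent diluted from 0.03 to 4 times its MIC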
Method: Checkerboard assays were carried out as described by Bonapace et al.
Diagnostic Microbiology and Infectious Diseases 2002; 44:363-366. In brief, checkerboard assays were performed in 96 well microtitre trays using an 8-by-8 well configuration. […] 96-well custom designed microtitre plates contained 100 ul/well of cation adjusted Mueller-Hinton broth (eg. for Enterobacteriaceae) with or without lysed horse blood (2-5% V/V) [eg. for S. pneumoniae] and were inoculated to achieve a final concentration of approximately 5×10^5 CFU/ml and incubated in ambient air for 24 hours prior to reading. Colony counts were performed periodically to confirm inocula. Quality control was performed every two weeks using a variety of ATCC QC organisms including; S. pneumoniae 49619, S. aureus 29213, E. faecalis 29212, E. coli 25922 and P. aeruginosa 27853. […] All peptides were assessed for synergy with β-lactams and vancomycin. For all antimicrobials as well as the peptides, CLSI criteria were used.
(§1) The fractional inhibitory concentration index (FIC index) was used to interpret synergy, antagonism or additivity/indifference. FIC index=FIC of drug A+FIC of drug B where:
The FIC of drug A and drug B was calculated as follows, FIC drug A=MIC of drug A in combination/MIC of drug A alone and FIC of drug B=MIC of drug B in combination/MIC of drug B alone. Synergy was defined as FIC index ≦0.5, additivity/indifference defined as a FIC between 0.5 and 4 and antagonism defined as an FIC index >4.
(§2) The checkerboard assays were carried out as described by Eliopoulos and Moellering (Chapter 9) in Antibiotic in Laboratory Medicine, Lorian Ed. 1996 as well as Bonapace et al. Diagnostic Microbiology and Infectious Diseases 2002; 44:363-366 and Bonapace et al. Diagnostic Microbiology and Infectious Diseases 2000; 38:43-50. In brief, checkerboard assays were performed in 96 well microtitre trays using an 8-by-8 well configuration. […] 96-well custom designed microtitre plates contained 100 ul/well of cation adjusted Mueller-Hinton broth (eg. for Enterobacteriaceae) with or without lysed horse blood (2-5% V/V) [eg. for S. pneumoniae] and were inoculated to achieve a final concentration of approximately 5×10^5 CFU/ml and incubated in ambient air for 24 hours prior to reading. Colony counts were performed periodically to confirm inocula. Quality control was performed every two weeks using a variety of ATCC QC organisms including; S. pneumoniae 49619, S. aureus 29213, E. faecalis 29212, E. coli 25922 and P. aeruginosa 27853. For all antimicrobials as well as PEP35, CLSI criteria was used.
(§3) The FIC of drug A and drug B is calculated as follows, FIC drug A=MIC of drug A in combination/MIC of drug A alone and FIC of drug B=MIC of drug B in combination/MIC of drug B alone. Synergy is defined as FIC index ≦0.5, additivity/indifference FIC >0.5-4 and antagonism FIC index >4.
(§4) Antimicrobials used included PEP35, cefazolin, ceftriaxone, vancomycin, linezolid, tigecycline and daptomycin versus Gram-positive cocci and PEP35, gentamicin, levofloxacin, piperacillin/tazobactam, meropenem and colistin (Polymyxin E) versus Gram-negative bacilli. These agents were obtained as laboratory grade powders from their respective manufacturers. Stock solutions were prepared and dilutions made as described by the Clinical Laboratory Standards Institute (2005 CLSI).
Organisms included Gram-positive cocci (2 strains of each): Methicillin-susceptible Staphylococcus aureus (MSSA), community-associated (CA) and healthcare-associated (HA) methicillin-resistant Staphylococcus aureus (MRSA), vancomycin-intermediate Staphylococcus aureus (VISA), vancomycin-resistant Staphylococcus aureus (VRSA), methicillin-resistant Staphylococcus epidermidis (MRSE), Streptococcus pyogenes, Streptococcus agalactiae, Streptococcus pneumoniae, Enterococcus faecalis, Enterococcus faecium and vancomycin-resistant enterococcus (VRE). […]

CA-MRSA = assay: MIC (CLSI broth dilution), agent alone; format: cell-based, Staphylococcus aureus
Summary of the method: (§5)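 S. aureus isolates were tested by CLSI 2005 broth macrodilution in doubling dilutions of cation-adjusted Mueller-Hinton broth. Inoculum was about 5×10^5 CFU/ml, with 24 h incubation in ambient air. MIC was the lowest concentration inhibiting visible growth, with an MSSA and ATCC QC strains as controls.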

HA-MRSA = assay: MIC (CLSI broth dilution), agent alone; format: cell-based, Staphylococcus aureus
Summary of the method: as §5

MSSA [2] = assay: MIC (CLSI broth dilution), agent alone; format: cell-based, Staphylococcus aureus; conditions: agent alone
Summary of the method: as §5

MRSE = assay: Checkerboard assay (FIC index); format: cell-based, Staphylococcus epidermidis; conditions: antibiotic combined with PEP35;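 also: each agent diluted from 0.03 to 4 times its MIC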
Method: as §2, §1, §3, §4
Organisms included Gram-positive cocci (2 strains of each): Methicillin-susceptible Staphylococcus aureus (MSSA), community-associated (CA) and healthcare-associated (HA) methicillin-resistant Staphylococcus aureus (MRSA), vancomycin-intermediate Staphylococcus aureus (VISA), vancomycin-resistant Staphylococcus aureus (VRSA), methicillin-resistant Staphylococcus epidermidis (MRSE), Streptococcus pyogenes, Streptococcus agalactiae, Streptococcus pneumoniae, Enterococcus faecalis, Enterococcus faecium and vancomycin-resistant enterococcus (VRE). Gram-negative bacilli tested (2 strains of each) included: E. coli, Pseudomonas aeruginosa, Klebsiella pneumoniae, K. oxytoca, Enterobacter cloacae, P. mirabilis and Stenotrophomonas maltophilia. MIC testing, following two subcultures from frozen stock were determined by the CLSI 2005 approved broth microdilution method.

[3] = antibiotic combined with PEP35, MSSA 83424
[4] = β-lactam combined with HybPEP35-1, MSSA 79333
[5] = β-lactam combined with PEP-52, MSSA 79333
[6] = β-lactam combined with Scrambled PEP35, MSSA 79333
[7] = CA-MRSA 69615 (USA400)^a row, antibiotic alone, in µg/mL
[8] = CA-MRSA 69615 (USA400)^b row, antibiotic alone, in µg/mL
[9] = HA-MRSA 70798 (USA100/800), agent alone, in µg/mL
[10] = HA-MRSA 77090 (USA100/800), agent alone
[11] = HA-MRSA 77090 (USA100/800)^a row, antibiotic alone, in µg/mL
[12] = HA-MRSA 77090 (USA100/800)^b row, antibiotic alone, in µg/mL
[13] = HA-MRSA 77098 (USA100/800), agent alone

Row | SMILES | Avg ΣFIC (range) (MSSA [1]; [3]) | Avg ΣFIC (range) (MSSA [1]; [4]) | Avg ΣFIC (range) (MSSA [1]; [5]) | Avg ΣFIC (range) (MSSA [1]; [6]) | MIC (CA-MRSA; [7]) | MIC (CA-MRSA; [8]) | MIC (HA-MRSA; [9]) | MIC (HA-MRSA; [10]) | MIC (HA-MRSA; [11]) | MIC (HA-MRSA; [12]) | MIC (HA-MRSA; [13]) | MIC (MSSA [2]; MSSA 79333) | Avg ΣFIC (range) (MRSE; MRSE 79617) | Avg ΣFIC (range) (MRSE; MRSE 83100) | other results
1 | Cc1nnc(SCC2=C(C(=O)O)N3C(=O)[C@@H](NC(=O)Cn4cnnn4)[C@H]3SC2)s1 [Cefazolin] | 1.02 (0.75-1.25) | 0.57 | >1* | 0.57 | 64 | 64 | 512 | 128 and 256/256 | 128 | 128 | 512/512 | 1 and 0.5/0.5 | 0.88 (0.53-1.25) | 0.52 (0.37-0.62) | MICs alone, range (CA-MRSA; 50 CA-MRSA strains): 2 to 256 µg/mL; strains resistant to the antibiotic (CA-MRSA; 50 CA-MRSA strains): 45 of the 50 strains; MIC (CA-MRSA; CA-MRSA 69615 (USA400), agent alone): 64 and 64/64; MIC (CA-MRSA; CA-MRSA 70857 (USA400), agent alone): 32 and 32/32; MIC (CA-MRSA; Staphylococcus aureus, MRSA / USA400): 256 µg/mL; MICs alone, range (HA-MRSA; 50 HA-MRSA strains): 2 to 512 µg/mL; strains resistant to the antibiotic (HA-MRSA; 50 HA-MRSA strains): 47 of the 50 strains; MIC (HA-MRSA; HA-MRSA 77090 (USA100/800), agent alone, in µg/mL): 128 and 64; MIC (HA-MRSA; Staphylococcus aureus, MRSA / USA200, HA-MRSA (CMRSA4/USA200), antibiotic alone, read-out: Cefazolin (MIC)): 256 µg/mL; MIC (HA-MRSA; Staphylococcus aureus, MRSA / USA500, HA-MRSA (CMRSA5/USA500), antibiotic alone, read-out: Cefazolin (MIC)): 2 µg/mL; MIC (HA-MRSA; Staphylococcus aureus, MRSA / USA600, HA-MRSA (CMRSA1/USA600), antibiotic alone, read-out: Cefazolin (MIC)): 128 µg/mL; MIC (HA-MRSA; Staphylococcus aureus, MRSA, HA-MRSA (CMRSA3/6), antibiotic alone, read-out: Cefazolin (MIC)): 256 µg/mL; MIC (HA-MRSA; Staphylococcus aureus, MRSA, HA-MRSA (CMRSA6), antibiotic alone, read-out: Cefazolin (MIC)): 256 µg/mL; MIC (HA-MRSA; Staphylococcus aureus, MRSA, HA-MRSA (CMRSA8), antibiotic alone, read-out: Cefazolin (MIC)): 64 µg/mL; MIC (MSSA [2]; MSSA 79333, listed as CEFAZOLIN): 0.5/0.5; MIC (MSSA [2]; S. aureus control): 0.5/0.5 ug/ml; MIC (MSSA [2]; Staphylococcus aureus, MSSA, S. aureus control, read-out: MIC): 0.5 µg/mL
2 | CO/N=C(\C(=O)N[C@@H]1C(=O)N2C(C(=O)O)=C(CSc3nc(=O)c(=O)[nH]n3C)CS[C@H]12)c1csc(N)n1 [Ceftriaxone] | 0.80 (0.5-1.12) | 0.98 | >1* | 0.98 | 512 | 256 | 2048 | 512 and 1024/1024 | 512 | 512 | 4096/4096 | 8 and 4/4 | 0.88 (0.53-1.25) | 1.05 (0.75-1.25) | MIC (CA-MRSA; CA-MRSA 69615 (USA400), agent alone, in µg/mL): 256 and 512; MIC (CA-MRSA; CA-MRSA 69615 (USA400), agent alone, listed as CEFTRIAXONE, in µg/mL): 128 and 64; MIC (CA-MRSA; CA-MRSA 70857 (USA400), agent alone, in µg/mL): 256 and 128; MIC (MSSA [2]; MSSA 79333, listed as CEFTRIAXONE): 4/4

Source: patent US9751919B2, “Antimicrobial compositions comprising a hyaluronic acid binding peptide and a β-lactam antibiotic” (priority 2012, dated 2017)
